Reference: ChEMBL document CHEMBL5678816, “A Next-Generation TRK Kinase Inhibitor Overcomes Acquired Resistance to Prior TRK Kinase Inhibition in Patients with TRK Fusion-Positive Solid Tumors” (Cancer Discov, 2017)
Active and inactive are the calls of the source. No cut-off for these calls is given here.

Tests used:
[1] = Inhibition of N-terminal 6His-tagged TRKC G696A mutant (506 to 829 residues) (unknown origin) expressed in Escherichia coli incubated for 60 mins by [gamma-33P]-ATP based TopCount NXT liquid scintillation assay; design: species or system Homo sapiens
[2] = system: NIH3T3; assay: Antitumor activity against mouse NIH3T3 cells harboring extracellular domain deleted TRKA G595R mutant implanted in nu/nu NCr mouse assessed as inhibition of tumor growth at 30 to 300 mg/kg, po administered twice daily for 12 days; format: functional, organism-based; settings: dose 30-300 mg/kg, time 12.0 day
[3] = system: A 172; assay: Inhibition of cell proliferation in human A-172 cells upto 10 umol/L incubated for 72 hrs by DAPI staining based analysis; format: functional; settings: dose <= 10.0 µmol/L
[4] = system: MIA PaCa-2; assay: Inhibition of cell proliferation in human MIA PaCa-2 cells upto 10 umol/L incubated for 72 hrs by DAPI staining based analysis; format: functional; settings: dose <= 10.0 µmol/L
[5] = system: SK-N-FI; assay: Inhibition of cell proliferation in human SK-N-FI cells upto 10 umol/L incubated for 72 hrs by DAPI staining based analysis; format: functional; settings: dose <= 10.0 µmol/L
[6] = system: NCI-H292; assay: Inhibition of cell proliferation in human NCI-H292 cells upto 10 umol/L incubated for 72 hrs by DAPI staining based analysis; format: functional; settings: dose <= 10.0 µmol/L
[7] = system: SW1353; assay: Inhibition of cell proliferation in human SW1353 cells upto 10 umol/L incubated for 72 hrs by DAPI staining based analysis; format: functional; settings: dose <= 10.0 µmol/L
[8] = system: Hs-578T; assay: Inhibition of cell proliferation in human Hs-578T cells upto 10 umol/L incubated for 72 hrs by DAPI staining based analysis; format: functional; settings: dose <= 10.0 µmol/L
[9] = system: SAOS-2; assay: Inhibition of cell proliferation in human SAOS-2 cells upto 10 umol/L incubated for 72 hrs by DAPI staining based analysis; format: functional; settings: dose <= 10.0 µmol/L
[10] = system: SCC-9; assay: Inhibition of cell proliferation in human SCC-9 cells upto 10 umol/L incubated for 72 hrs by DAPI staining based analysis; format: functional; settings: dose <= 10.0 µmol/L
[11] = Cmin in pediatric patient with recurrent ETV6-NTRK3-rearranged infantile fibrosarcoma at 60 mg administered twice a day as liquid formulation for 29 day and measured 12 hrs post dose by LC-MS/MS analysis; format: ADME; settings: human, in vivo, read-out: Cmin
[12] = target: Tyrosine-protein kinase ITK/TSK (Homo sapiens) (UniProt Q08881); assay: Inhibition of ITK (unknown origin) at 1 uM in presence of ATP relative to control; values are per cent of control
[13] = target: Tyrosine-protein kinase receptor TYRO3 (Homo sapiens) (UniProt Q06418); assay: Inhibition of Rse (unknown origin) at 1 uM in presence of ATP relative to control; values are per cent of control
Sequence of Tyrosine-protein kinase receptor TYRO3 (Homo sapiens) (Q06418 whole entry): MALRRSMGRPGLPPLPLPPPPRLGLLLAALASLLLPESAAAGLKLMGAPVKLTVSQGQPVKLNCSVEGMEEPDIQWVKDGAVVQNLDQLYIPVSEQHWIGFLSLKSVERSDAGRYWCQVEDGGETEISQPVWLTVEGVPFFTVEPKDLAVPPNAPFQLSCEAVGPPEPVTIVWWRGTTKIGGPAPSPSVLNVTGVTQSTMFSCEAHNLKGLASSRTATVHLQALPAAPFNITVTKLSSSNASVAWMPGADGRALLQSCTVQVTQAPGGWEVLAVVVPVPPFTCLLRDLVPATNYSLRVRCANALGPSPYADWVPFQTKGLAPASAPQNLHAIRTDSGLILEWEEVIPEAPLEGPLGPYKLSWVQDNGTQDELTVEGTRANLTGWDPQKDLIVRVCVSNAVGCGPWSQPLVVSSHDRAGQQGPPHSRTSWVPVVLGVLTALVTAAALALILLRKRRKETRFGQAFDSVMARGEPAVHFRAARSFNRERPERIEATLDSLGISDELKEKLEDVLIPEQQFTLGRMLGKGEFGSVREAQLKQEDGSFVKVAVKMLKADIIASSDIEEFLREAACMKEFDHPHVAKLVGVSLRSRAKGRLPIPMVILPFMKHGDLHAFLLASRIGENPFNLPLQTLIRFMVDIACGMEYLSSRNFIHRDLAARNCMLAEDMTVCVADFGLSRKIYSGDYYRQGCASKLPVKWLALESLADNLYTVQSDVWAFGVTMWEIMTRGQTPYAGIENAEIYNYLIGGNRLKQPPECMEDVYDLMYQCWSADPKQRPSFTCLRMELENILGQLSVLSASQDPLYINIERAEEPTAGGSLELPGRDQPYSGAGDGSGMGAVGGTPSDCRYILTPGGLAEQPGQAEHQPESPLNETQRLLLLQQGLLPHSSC

[14] = target: Serine/threonine-protein kinase Sgk2 (Homo sapiens) (UniProt Q9HBY8); assay: Inhibition of SGK2 (unknown origin) at 1 uM in presence of ATP relative to control; values are per cent of control
[15] = target: NUAK family SNF1-like kinase 1 (Homo sapiens) (UniProt O60285); assay: Inhibition of ARK5 (unknown origin) at 1 uM in presence of ATP relative to control; values are per cent of control
[16] = target: Mitogen-activated protein kinase 3 (Homo sapiens) (UniProt P27361); assay: Inhibition of ERK1 (unknown origin) at 1 uM in presence of ATP relative to control; values are per cent of control
[17] = target: Serine/threonine-protein kinase Nek7 (Homo sapiens) (UniProt Q8TDX7); assay: Inhibition of NEK7 (unknown origin) at 1 uM in presence of ATP relative to control; values are per cent of control
Sequence of Serine/threonine-protein kinase Nek7 (Homo sapiens) (Q8TDX7 whole entry, looked up): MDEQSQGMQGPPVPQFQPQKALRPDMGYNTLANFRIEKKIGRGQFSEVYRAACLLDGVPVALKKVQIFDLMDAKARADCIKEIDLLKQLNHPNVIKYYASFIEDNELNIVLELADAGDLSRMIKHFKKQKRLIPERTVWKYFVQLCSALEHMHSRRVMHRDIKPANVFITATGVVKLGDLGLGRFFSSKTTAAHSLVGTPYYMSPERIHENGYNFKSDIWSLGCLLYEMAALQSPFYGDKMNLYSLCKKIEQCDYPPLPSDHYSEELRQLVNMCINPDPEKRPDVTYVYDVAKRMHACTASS

[18] = target: Serine/threonine-protein kinase TAO1 (Homo sapiens) (UniProt Q7L7X3); assay: Inhibition of TAO1 (unknown origin) at 1 uM in presence of ATP relative to control; values are per cent of control
Sequence of Serine/threonine-protein kinase TAO1 (Homo sapiens) (Q7L7X3 whole entry): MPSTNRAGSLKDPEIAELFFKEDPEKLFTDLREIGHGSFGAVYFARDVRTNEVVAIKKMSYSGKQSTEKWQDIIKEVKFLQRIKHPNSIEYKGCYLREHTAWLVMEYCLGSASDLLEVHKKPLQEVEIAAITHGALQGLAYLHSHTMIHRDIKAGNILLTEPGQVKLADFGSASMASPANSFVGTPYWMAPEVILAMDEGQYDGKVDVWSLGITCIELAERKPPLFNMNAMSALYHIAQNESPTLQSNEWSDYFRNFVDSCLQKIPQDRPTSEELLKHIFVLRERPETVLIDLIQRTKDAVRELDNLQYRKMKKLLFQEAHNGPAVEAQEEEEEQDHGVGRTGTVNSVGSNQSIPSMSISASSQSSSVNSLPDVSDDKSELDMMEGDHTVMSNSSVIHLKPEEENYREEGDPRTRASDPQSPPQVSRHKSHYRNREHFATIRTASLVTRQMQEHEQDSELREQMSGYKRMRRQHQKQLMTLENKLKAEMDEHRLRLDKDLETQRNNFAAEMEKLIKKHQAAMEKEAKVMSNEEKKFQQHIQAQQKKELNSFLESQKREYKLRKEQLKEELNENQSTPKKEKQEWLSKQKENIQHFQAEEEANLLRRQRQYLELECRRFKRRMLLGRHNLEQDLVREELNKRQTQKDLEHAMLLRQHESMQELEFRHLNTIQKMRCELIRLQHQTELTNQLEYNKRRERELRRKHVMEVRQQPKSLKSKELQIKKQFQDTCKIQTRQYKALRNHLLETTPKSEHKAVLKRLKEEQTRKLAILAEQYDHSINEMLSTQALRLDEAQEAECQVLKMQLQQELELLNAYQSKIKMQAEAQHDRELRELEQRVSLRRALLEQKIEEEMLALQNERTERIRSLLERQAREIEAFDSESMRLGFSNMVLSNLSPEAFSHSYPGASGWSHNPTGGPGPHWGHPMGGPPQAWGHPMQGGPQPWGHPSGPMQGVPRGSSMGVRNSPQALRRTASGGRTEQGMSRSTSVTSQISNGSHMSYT

[19] = target: Protein-tyrosine kinase 2-beta (Homo sapiens) (UniProt Q14289); assay: Inhibition of FAK2 (unknown origin) at 1 uM in presence of ATP relative to control; values are per cent of control
Sequence of Protein-tyrosine kinase 2-beta (Homo sapiens) (Q14289 whole entry, looked up): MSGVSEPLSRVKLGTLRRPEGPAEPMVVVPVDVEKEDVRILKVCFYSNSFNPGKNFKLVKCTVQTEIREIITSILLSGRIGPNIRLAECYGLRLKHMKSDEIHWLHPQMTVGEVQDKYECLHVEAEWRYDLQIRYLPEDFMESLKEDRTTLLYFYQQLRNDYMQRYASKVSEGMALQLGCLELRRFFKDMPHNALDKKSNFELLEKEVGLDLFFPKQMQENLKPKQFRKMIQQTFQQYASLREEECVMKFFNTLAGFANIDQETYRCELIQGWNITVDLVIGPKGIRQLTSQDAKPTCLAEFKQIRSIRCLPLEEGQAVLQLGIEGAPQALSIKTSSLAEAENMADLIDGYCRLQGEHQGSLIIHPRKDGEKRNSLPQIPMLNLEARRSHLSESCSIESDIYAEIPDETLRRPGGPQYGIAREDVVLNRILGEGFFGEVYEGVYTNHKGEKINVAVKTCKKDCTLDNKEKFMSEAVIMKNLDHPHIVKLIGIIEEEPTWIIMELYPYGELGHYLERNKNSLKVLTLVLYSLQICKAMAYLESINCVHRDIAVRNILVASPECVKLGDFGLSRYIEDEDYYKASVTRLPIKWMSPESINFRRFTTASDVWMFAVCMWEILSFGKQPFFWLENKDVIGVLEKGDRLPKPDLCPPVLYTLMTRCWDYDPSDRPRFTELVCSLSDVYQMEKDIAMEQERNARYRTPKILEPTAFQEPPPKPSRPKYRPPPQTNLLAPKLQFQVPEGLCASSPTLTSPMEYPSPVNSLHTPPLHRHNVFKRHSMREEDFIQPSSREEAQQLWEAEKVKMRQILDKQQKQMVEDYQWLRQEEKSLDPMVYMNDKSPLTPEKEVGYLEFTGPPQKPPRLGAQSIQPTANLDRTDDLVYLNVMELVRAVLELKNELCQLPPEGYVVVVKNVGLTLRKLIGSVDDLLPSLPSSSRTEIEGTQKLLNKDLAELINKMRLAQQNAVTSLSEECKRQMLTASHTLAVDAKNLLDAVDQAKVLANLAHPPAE

[20] = target: Muscle, skeletal receptor tyrosine-protein kinase (Homo sapiens) (UniProt O15146); assay: Inhibition of MUSK (unknown origin) at 1 uM in presence of ATP relative to control; values are per cent of control
Sequence of Muscle, skeletal receptor tyrosine-protein kinase (Homo sapiens) (O15146 whole entry): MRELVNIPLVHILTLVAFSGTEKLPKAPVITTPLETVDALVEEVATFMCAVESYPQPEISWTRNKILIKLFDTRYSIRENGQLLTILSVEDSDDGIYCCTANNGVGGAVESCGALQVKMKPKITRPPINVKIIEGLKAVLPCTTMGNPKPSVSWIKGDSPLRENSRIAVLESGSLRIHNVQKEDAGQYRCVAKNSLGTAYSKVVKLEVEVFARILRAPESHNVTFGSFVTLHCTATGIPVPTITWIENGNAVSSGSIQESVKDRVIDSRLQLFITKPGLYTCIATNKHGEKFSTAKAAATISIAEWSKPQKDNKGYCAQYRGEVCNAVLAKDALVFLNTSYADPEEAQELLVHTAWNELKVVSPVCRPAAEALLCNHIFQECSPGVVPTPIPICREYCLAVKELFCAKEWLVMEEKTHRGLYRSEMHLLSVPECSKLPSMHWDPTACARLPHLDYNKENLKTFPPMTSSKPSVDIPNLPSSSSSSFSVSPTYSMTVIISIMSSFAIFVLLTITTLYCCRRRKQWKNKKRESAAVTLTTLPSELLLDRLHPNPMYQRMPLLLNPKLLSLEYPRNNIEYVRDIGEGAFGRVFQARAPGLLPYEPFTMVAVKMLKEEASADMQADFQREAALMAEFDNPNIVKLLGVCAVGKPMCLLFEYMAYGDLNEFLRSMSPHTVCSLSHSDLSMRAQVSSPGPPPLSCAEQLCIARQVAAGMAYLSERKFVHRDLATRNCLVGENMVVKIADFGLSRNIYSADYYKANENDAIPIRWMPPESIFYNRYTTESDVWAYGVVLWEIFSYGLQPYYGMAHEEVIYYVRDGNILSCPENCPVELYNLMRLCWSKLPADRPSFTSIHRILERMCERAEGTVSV

[21] = target: Activated CDC42 kinase 1 (Homo sapiens) (UniProt Q07912); assay: Inhibition of TNK2 (unknown origin) at 1 uM in presence of ATP relative to control; values are per cent of control
[22] = target: Mitogen-activated protein kinase kinase kinase 9 (Homo sapiens) (UniProt P80192); assay: Inhibition of MLK1 (unknown origin) at 1 uM in presence of ATP relative to control; values are per cent of control
[23] = target: SRSF protein kinase 2 (Homo sapiens) (UniProt P78362); assay: Inhibition of SRPK2 (unknown origin) at 1 uM in presence of ATP relative to control; values are per cent of control
Sequence of SRSF protein kinase 2 (Homo sapiens) (P78362 whole entry, looked up): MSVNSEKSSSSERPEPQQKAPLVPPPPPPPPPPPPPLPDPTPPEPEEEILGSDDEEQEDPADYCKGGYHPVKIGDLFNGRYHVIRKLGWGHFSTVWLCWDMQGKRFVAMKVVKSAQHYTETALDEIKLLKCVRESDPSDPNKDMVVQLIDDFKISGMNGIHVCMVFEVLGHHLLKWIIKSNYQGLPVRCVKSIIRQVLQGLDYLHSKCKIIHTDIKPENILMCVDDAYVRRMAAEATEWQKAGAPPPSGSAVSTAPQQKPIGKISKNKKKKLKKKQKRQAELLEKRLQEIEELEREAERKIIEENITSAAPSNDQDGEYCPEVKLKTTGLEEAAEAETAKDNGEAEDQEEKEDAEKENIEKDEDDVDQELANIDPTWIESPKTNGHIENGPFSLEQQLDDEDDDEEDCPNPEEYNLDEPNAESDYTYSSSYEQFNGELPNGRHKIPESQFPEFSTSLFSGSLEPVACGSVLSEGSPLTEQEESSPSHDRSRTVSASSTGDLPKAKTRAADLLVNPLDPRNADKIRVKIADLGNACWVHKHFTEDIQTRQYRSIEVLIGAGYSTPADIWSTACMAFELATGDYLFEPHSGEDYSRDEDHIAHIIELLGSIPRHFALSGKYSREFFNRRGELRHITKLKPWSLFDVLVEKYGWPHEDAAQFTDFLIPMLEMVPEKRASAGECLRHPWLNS

[24] = target: Serine/threonine-protein kinase haspin (Homo sapiens) (UniProt Q8TF76); assay: Inhibition of Haspin (unknown origin) at 1 uM in presence of ATP relative to control; values are per cent of control
[25] = target: Protein kinase C iota type (Homo sapiens) (UniProt P41743); assay: Inhibition of PKCiota (unknown origin) at 1 uM in presence of ATP relative to control; values are per cent of control
[26] = target: Protein kinase C theta type (Homo sapiens) (UniProt Q04759); assay: Inhibition of PKCtheta (unknown origin) at 1 uM in presence of ATP relative to control; values are per cent of control
[27] = target: Glycogen synthase kinase-3 alpha (Homo sapiens) (UniProt P49840); assay: Inhibition of GSK3alpha (unknown origin) at 1 uM in presence of ATP relative to control; values are per cent of control
[28] = target: cAMP-dependent protein kinase catalytic subunit alpha (Homo sapiens) (UniProt P17612); assay: Inhibition of PKAC-alpha (unknown origin) at 1 uM in presence of ATP relative to control; values are per cent of control
[29] = target: FKBP12A/mTOR (Homo sapiens) (UniProt P62942+P42345); assay: Inhibition of mTOR/FKBP12 (unknown origin) at 1 uM in presence of ATP relative to control; values are per cent of control
Sequence of FKBP12A/mTOR (Homo sapiens) (P62942 2-108 limits assumed, other chains not shown): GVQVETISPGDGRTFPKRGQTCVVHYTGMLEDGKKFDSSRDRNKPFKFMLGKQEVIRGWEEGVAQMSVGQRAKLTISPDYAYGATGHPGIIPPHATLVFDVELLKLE

C[C@@H]1CCc2ncc(F)cc2[C@H]2CCCN2c2ccn3ncc(c3n2)C(=O)N1 [SELITRECTINIB]
IC50 [1]: < 2.5 nM | Activity [2]: Active | inhibition [3]: inactive | inhibition [4]: inactive | inhibition [5]: inactive | inhibition [6]: inactive | inhibition [7]: inactive | inhibition [8]: inactive | inhibition [9]: inactive | inhibition [10]: inactive | concentration at 708 h [11]: 12 ng/mL | residual activity [12]: 90.5% | residual activity [13]: 110% | residual activity [14]: 136% | residual activity [15]: 98% | residual activity [16]: 111% | residual activity [17]: 103% | residual activity [18]: 102% | residual activity [19]: 89% | residual activity [20]: 89.5% | residual activity [21]: 10% | residual activity [22]: 96.5% | residual activity [23]: 93.5% | residual activity [24]: 110% | residual activity [25]: 100% | residual activity [26]: 108% | residual activity [27]: 117% | residual activity [28]: 109% | residual activity [29]: 102%
